From PMC3997483, “Aminostyrylbenzofuran Directly Reduces Oligomeric Amyloid-β and Reverses Cognitive Deficits in Alzheimer Transgenic Mice” (PLoS ONE, 2014)

What was measured:
APP/PS1 TG mice [1] = experiment: Morris water maze, prophylactic trial; type: in vivo, mouse; settings: TG mice
Method: Behavioral tests were performed in the following sequence: Y-maze (day 1), Morris water maze (day 4 to 12) and contextual fear conditioning (day 26 to 27). To reduce stress, contextual fear conditioning was carried out 2 weeks after the Morris water maze task. In the therapeutic trial, APP/PS1 TG mice were treated with KMS88009 (30 mg/kg/day) for 3 months from 9 to 12 months of age. Y-maze tests short-term spatial working memory. Y-maze is a 3-armed (40 L×10 W×12 H cm) horizontal maze in which the arms are symmetrically disposed at 120° angles from each other. Mice were placed at the end of one arm and allowed to move freely through the maze during a 5-min session. Arm entry was considered completed when the hind paws of the mouse were completely placed in the arm. Alternation was defined as successive entries into the 3 arms on overlapping triplet sets. The series of arm entries was recorded via video recorders. The percentage of alternation was defined according to the following equation: % alternation = [(number of alternations)/(total arm entries - 2)] ×100. Mice performing fewer than 7 alternations in 5 min were excluded from the subsequent analysis to accurately determine alternation scores. Morris water maze was used to measure spatial learning and memory. A stainless pool apparatus with a diameter of 120 cm was used. A clear escape platform (circle, 12×12 cm) was located 1.0 cm below (hidden) the water surface containing white nontoxic paint. The temperature of water was kept constant throughout the experiment (21±1°C). The visual cues, for mice to recognize the environment and direction, are placed on the walls around the pool. The training was consisted of 8 consecutive days of testing with 4 trials per day. When a mouse was located on the escape platform, it was permitted to remain on the platform for 15 sec. […] Then the subject was returned to its home cage and allowed to dry up after each trial. The platform location was kept constant and the starting position was varied. Each mouse was placed in the water with their nose pointing toward the wall at one of the starting points in a random manner. During each trial session, the time taken to find the hidden platform (latency) was recorded using a video camera-based Ethovision System (Nodulus, Nertherlands). On the 9th day, each mouse was tested on a probe trial. The platform was removed from pool and the mice were allowed to swim for 60 sec to search. Swimming time was recorded during mice were in the pool quadrant where the platform had been previously located. Mice, which float or jump from platform, were eliminated from the experiment since these responses may be incompatible with the behaviors needed to locate and learn the platform position. In addition, animals with difficulty in swimming were also excluded from this study. Fear conditioning task was measured to test the ability to learn and remember an association between an aversive experience and environmental cues. Contextual fear conditioning evaluation was performed using a fear-conditioning chamber (Courlbourn, USA) equipped with a computer-controlled fear conditioning system (FreActimetrics, USA). On the first day of training, each mouse was placed in the conditioning chamber and left to adjust for 2 min. Fear conditioning test was performed with conditional stimulus (CS) of sound (75 dB) for 20 sec followed by unconditional stimulus (US) of electric foot-shock (0.5 mA) for the last 2 sec in CS. After 1 min, the subject was returned to its home cage. After 24 hr, retention test was performed. […] Freezing response was measured without CS or US. Freezing behavior was defined as the complete absence of any movement except for respiration and heartbeat. Animals with no response to the foot-shock during training were excluded from the analysis. Data analyses including recordings of all behavioral responses were performed by keeping research colleagues blind.

APP/PS1 TG mice [2] = experiment: Y-maze, prophylactic trial; type: in vivo, mouse; settings: PO 100 mg/kg/day, 5 to 12 months of age
in vitro = settings: monkey, microsomes

Row | Compound | Latency (hidden platform) (APP/PS1 TG mice [1]; Day 1, dose group +++ (100 mg/kg/day)) [s] | Latency (hidden platform) (APP/PS1 TG mice [1]; Day 2, dose group +++ (100 mg/kg/day)) [s] | Latency (hidden platform) (APP/PS1 TG mice [1]; Day 3, dose group +++ (100 mg/kg/day)) [s] | Latency (hidden platform) (APP/PS1 TG mice [1]; Day 4, dose group +++ (100 mg/kg/day)) [s] | Latency (hidden platform) (APP/PS1 TG mice [1]; Day 5, dose group +++ (100 mg/kg/day)) [s] | Latency (hidden platform) (APP/PS1 TG mice [1]; Day 6, dose group +++ (100 mg/kg/day)) [s] | Latency (hidden platform) (APP/PS1 TG mice [1]; Day 7, dose group +++ (100 mg/kg/day)) [s] | Latency (hidden platform) (APP/PS1 TG mice [1]; Day 8, dose group +++ (100 mg/kg/day)) [s] | frequency of spontaneous alternation (Y-maze) (APP/PS1 TG mice [2]) [%] | half-life at 5 µM (in vitro) [min] | remaining at 1 h, 5 µM (in vitro) [%]
1 | O[C@H]1[C@H](O)[C@@H](O)[C@H](O)[C@@H](O)[C@@H]1O [Scyllo-inositol, reference compound] | 49.1 ± 2.4 | 43.1 ± 2.6 | 44.7 ± 4.2 | 37.5 ± 4.0 | 44.6 ± 3.3 | 39.0 ± 4.3 | 38.4 ± 4.4 | 37.2 ± 4.3 | 70.0 |  | 
2 | C[C@]12CC[C@H]3[C@@H](CCC4=CC(=O)CC[C@@]43C)[C@@H]1CC[C@@H]2O [Testosterone, reference compound] |  |  |  |  |  |  |  |  |  | 23.4 ± 0.5 | 16 ± 0.4
